We go through 22 compounds from ChEMBL document CHEMBL4699502, “Discovery of 1-(1H-indazol-4-yl)-3-((1-phenyl-1H-pyrazol-5-yl)methyl) ureas as potent and thermoneutral TRPV1 antagonists” (Bioorg Med Chem Lett, 2020).

Calls of active or inactive are those of the source. The calls are words filed in the database; no cut-off is given here.

Series [1] has as its target T1, Transient receptor potential cation channel subfamily V member 1 (Homo sapiens, UniProt Q8NER1). The experiment in a line: Partial agonist activity at human TRPV1 expressed in CHO-K1 cells assessed as induction of Ca2+ response treated with compound 6 mins prior to capsaicin addition and measured after overnight incubation by FLIPR assay. Format: cell-based. Conditions: filed as partial agonist.

Series [2] has as its target T1, Transient receptor potential cation channel subfamily V member 1. Put plainly: Antagonist activity at human TRPV1 expressed in CHO-K1 cells assessed as inhibition of capsaicin-induced Ca2+ response treated with compound 6 mins prior to capsaicin addition and measured after overnight incubation by FLIPR assay. Format: cell-based.
Series [3] shares this target. Put plainly: Agonist activity at human TRPV1 expressed in CHO-K1 cells assessed as induction of Ca2+ response treated with compound 6 mins prior to capsaicin addition and measured after overnight incubation by FLIPR assay. It counts as cell-based. Conditions: filed as agonist.
The nature of series [4]: In vivo antagonist activity at TRPV1 in mouse assessed as inhibition of capsaicin-induced hypothermia at 10 mg/kg, po. It counts as functional.
Series [5] can be described thus: Induction of hyperthermia in mouse assessed as effect on body temperature by measuring thermo-neutral activity at 10 mg/kg, po. Conditions: in vivo. Format: organism-based.

T1 sequence (Q8NER1 whole entry): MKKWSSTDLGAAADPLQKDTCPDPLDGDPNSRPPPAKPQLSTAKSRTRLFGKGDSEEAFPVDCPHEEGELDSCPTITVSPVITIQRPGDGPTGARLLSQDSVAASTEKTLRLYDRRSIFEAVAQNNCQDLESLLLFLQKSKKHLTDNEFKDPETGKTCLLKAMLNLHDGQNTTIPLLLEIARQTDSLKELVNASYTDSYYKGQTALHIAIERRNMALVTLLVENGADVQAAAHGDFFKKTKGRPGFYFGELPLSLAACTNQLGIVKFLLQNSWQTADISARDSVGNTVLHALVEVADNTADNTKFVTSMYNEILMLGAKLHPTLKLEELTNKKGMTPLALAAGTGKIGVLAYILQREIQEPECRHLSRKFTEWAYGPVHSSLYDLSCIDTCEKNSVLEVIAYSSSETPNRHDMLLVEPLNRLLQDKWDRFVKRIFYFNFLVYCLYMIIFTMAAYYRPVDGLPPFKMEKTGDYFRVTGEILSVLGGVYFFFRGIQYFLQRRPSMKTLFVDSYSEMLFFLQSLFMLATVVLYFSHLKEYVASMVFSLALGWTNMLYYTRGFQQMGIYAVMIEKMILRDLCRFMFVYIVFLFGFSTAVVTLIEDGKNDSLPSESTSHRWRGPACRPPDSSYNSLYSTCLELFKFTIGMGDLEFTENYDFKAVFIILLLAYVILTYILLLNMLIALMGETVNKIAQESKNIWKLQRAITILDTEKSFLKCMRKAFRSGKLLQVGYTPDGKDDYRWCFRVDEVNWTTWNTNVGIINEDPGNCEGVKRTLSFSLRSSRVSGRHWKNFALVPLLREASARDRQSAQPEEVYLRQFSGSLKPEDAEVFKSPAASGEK

As to `Cc1ccc(-n2nc(C(C)(C)C)cc2CNC(=O)Nc2cccc3[nH]ncc23)cc1C`, the outcome in series [1] was Active.
As usually defined, the Ki is a dissociation constant, usually derived from enzyme kinetics or from competition with a known ligand. For `Cn1ncc2cc(NC(=O)NCc3cc(C(F)(F)F)nn3-c3cccc(Cl)c3)ccc21`, the inhibitory constant (Ki) in series [2] is 61 nM.
Take `Cn1ncc2c(NC(=O)NCc3cc(C(F)(F)F)nn3-c3ccc(C(F)(F)F)cc3)cccc21`: in series [2], the Ki is 3.9 nM.
Take `Cn1cc2c(NC(=O)NCc3cc(C(C)(C)C)nn3-c3cccc(Cl)c3)cccc2n1`: in series [3], the result was Active.
In the case of `Cn1ncc2c(NC(=O)NCc3cc(C(F)(F)F)nn3-c3ccc(F)c(Cl)c3)cccc21`, in series [2], the Ki stood at 1.9 nM.
For the compound `Cn1ncc2c(NC(=O)NCc3cc(C(C)(C)C)nn3-c3ccc(Cl)cc3)cccc21`, the Ki in series [2] was 9.5 nM.
Regarding `Cn1cc2c(NC(=O)NCc3cc(C(F)(F)F)nn3-c3cccc(Cl)c3)cccc2n1`, the outcome in series [3] was Active.
With `CC(=O)n1ncc2c(NC(=O)NCc3cc(C(C)(C)C)nn3-c3cccc(Cl)c3)cccc21`, in series [2], the Ki was found to be 29.5 nM.
For `O=C(NCc1cc(C(F)(F)F)nn1-c1cccc(Cl)c1)Nc1ccc2cn[nH]c2c1`, the inhibition entry in series [2] (filed as antagonist) is “Active”.
With `Cn1ncc2c(NC(=O)NCc3cc(C(F)(F)F)nn3-c3cccc(F)c3)cccc21`, in series [2], the Ki was 7 nM.
As to `O=C(NCc1cc(C(F)(F)F)nn1-c1ccc(Cl)cc1)Nc1cccc2[nH]ncc12`, the inhibitory constant (Ki) in series [2] turned out to be 2.5 nM.
Same read-out and setting: the figure for `CC(C)(C)c1cc(CNC(=O)Nc2cccc3[nH]ncc23)n(-c2ccc(F)cc2)n1` is 2.2 nM; for `Cn1ncc2c(NC(=O)NCc3cc(C(F)(F)F)nn3-c3ccc(Cl)cc3)cccc21` it is 2.7 nM.
As usually defined, the inhibition in vivo is the drop in the measured response relative to a control, in per cent. Take `Cn1ncc2c(NC(=O)NCc3cc(C(C)(C)C)nn3-c3cccc(Cl)c3)cccc21`: in series [2], the Ki was 0.4 nM. In series [4], the inhibition in vivo at 10 mg/kg stood at 14%. Besides, in series [5], the Activity result is recorded as “Non-Toxic”.
As to `Cn1ncc2ccc(NC(=O)NCc3cc(C(F)(F)F)nn3-c3cccc(Cl)c3)cc21`, the outcome in series [1] was Active.
With `COc1ccc(-n2nc(C(C)(C)C)cc2CNC(=O)Nc2cccc3[nH]ncc23)cc1`, in series [2], the inhibition constant (Ki) was determined as 62.9 nM.
For the compound `CC(C)(C)c1cc(CNC(=O)Nc2ccc3cn[nH]c3c2)n(-c2cccc(Cl)c2)n1`, the outcome in series [1] was Active.
Regarding `Cn1ncc2c(NC(=O)NCc3cc(C(C)(C)C)nn3-c3ccc(C(F)(F)F)cc3)cccc21`, in series [2], the Ki worked out at 12.4 nM.
As to `Cn1ncc2cc(NC(=O)NCc3cc(C(C)(C)C)nn3-c3cccc(Cl)c3)ccc21`, the result in series [3] was Active.
As for `Cn1ncc2ccc(NC(=O)NCc3cc(C(C)(C)C)nn3-c3cccc(Cl)c3)cc21`, the result in series [3] was Active.
Regarding `O=C(NCc1cc(C(F)(F)F)nn1-c1ccc(F)c(Cl)c1)Nc1cccc2[nH]ncc12`, in series [2], the Ki turned out to be 0.6 nM.
In the case of `CC(C)(C)c1cc(CNC(=O)Nc2ccc3[nH]ncc3c2)n(-c2cccc(Cl)c2)n1`, in series [3], the result was Active.
